Measurements published in patent publication US20230172204A1 (BASF SE, priority 2020, published 2023).

Experiments:
[1] = system: Phakopsora pachyrhizi (F129L); test: Protective control of soybean rust on soybeans (PHAKPA P6); assay type: in vivo; conditions: for % PHAKPA (F129L) Disease level P6 at 4 ppm: protective P6, 4 ppm; for % PHAKPA (F129L) Disease level P6 at 4 ppm / % PHAKPA (F129L) Disease level P6 at 16 ppm: soybean rust F129L; for % PHAKPA (F129L) Disease level P6 at 16 ppm: protective P6, 16 ppm; for PHAKPA (F129L) Disease level (%) P6 at 4 ppm / PHAKPA (F129L) Disease level (%) P6 at 16 ppm: P6 protective, % diseased leaf area
[2] = system: Phakopsora pachyrhizi (F129L); test: Protective control of soybean rust on soybeans (PHAKPA P2); assay type: in vivo; conditions: for % PHAKPA (F129L) Disease level P2 at 4 ppm: protective P2, 4 ppm; for % PHAKPA (F129L) Disease level P2 at 4 ppm / % PHAKPA (F129L) Disease level P2 at 16 ppm: soybean rust F129L; for % PHAKPA (F129L) Disease level P2 at 16 ppm: protective P2, 16 ppm; for PHAKPA (F129L) Disease level (%) P2 at 4 ppm / PHAKPA (F129L) Disease level (%) P2 at 16 ppm: P2 protective, % diseased leaf area

| SMILES | % PHAKPA (F129L) Disease level P6 at 4 ppm [1] | % PHAKPA (F129L) Disease level P6 at 16 ppm [1] | % PHAKPA (F129L) Disease level P2 at 4 ppm [2] | % PHAKPA (F129L) Disease level P2 at 16 ppm [2] | PHAKPA (F129L) Disease level (%) P6 at 4 ppm [1] | PHAKPA (F129L) Disease level (%) P2 at 4 ppm [2] | PHAKPA (F129L) Disease level (%) P6 at 16 ppm [1] | PHAKPA (F129L) Disease level (%) P2 at 16 ppm [2] |
| --- | --- | --- | --- | --- | --- | --- | --- | --- |
| CNC(=O)/C(=N/OC)c1cccc(C)c1CO/N=C(\C)c1cc(Br)ccc1F [compound 140] | 13% | 4% | 8% | 0% | – | – | – | – |
| CO/N=C(/C(=O)OC)c1cccc(C)c1CO/N=C(\C)c1cc(F)c(F)cc1C(F)(F)F [compound 409] | 83% | 73% | 77% | 40% | – | – | – | – |
| CO/N=C(/c1cccc(/C(C)=N/OCc2c(C)cccc2/C(=N\OC)C(=O)OC)c1)C(F)(F)F [compound 70] | 10% | 1% | 30% | 0% | – | – | – | – |
| CNC(=O)/C(=N/OC)c1ccccc1CO/N=C(\C)c1cccc(C(F)(F)F)c1 [reference compound] | – | – | – | – | 38% | 12% | – | – |
| CO/N=C(/C(=O)OC)c1ccccc1CO/N=C(/c1ccc(Cl)cc1)C(F)F [reference compound] | – | – | – | – | – | – | 90% | 100% |
| CO/C=C(/C(=O)OC)c1cccc(C)c1CO/N=C(\C)c1ccc(-c2ccc(F)cc2)cc1C(F)(F)F [compound 432] | 13% | 3% | 12% | 0% | – | – | – | – |
| CC/C(=N\OCc1c(C)cccc1/C(=N\OC)C(=O)OC)c1cccc(C(F)(F)F)c1 [compound 204] | 80% | 5% | 50% | 4% | – | – | – | – |
| CNC(=O)/C(=N/OC)c1cccc(C)c1CO/N=C(\C)c1cccc(OC(F)F)c1 [compound 81] | 2% | 0% | 6% | 0% | – | – | – | – |
| CNC(=O)/C(=N/OC)c1cccc(C)c1CO/N=C(\C)c1cc(F)c(F)cc1CC(F)(F)F [compound 406] | 67% | 23% | 97% | 30% | – | – | – | – |
| CNC(=O)/C(=N/OC)c1cccc(C)c1CO/N=C(\C)c1ccc(Cc2ccccc2)cc1C(F)(F)F [compound 407] | 17% | 4% | 12% | 6% | – | – | – | – |
| CO/N=C(/C(=O)OC)c1cccc(C)c1CO/N=C(\C)c1cc(Cl)cc(Cl)c1 [Ex. 3, Methyl (2E)-2-[2-[[(E)-1-(3,5-dichlorophenyl)ethylideneamino]oxymethyl]-3-methyl-phenyl]-2-methoxyimino-acetate] | 40% | 6% | 30% | 3% | – | – | 1% | 2% |
| CO/N=C(/C(=O)OC)c1cccc(C)c1CO/N=C(\OC)c1cccc(C)c1 [drawing 970, reference compound] | – | – | – | – | – | 83% | 57% | – |
| CNC(=O)/C(=N/OC)c1ccccc1CO/N=C(\C)c1cccc(Cl)c1 [reference compound] | – | – | – | – | 80% | 43% | – | – |
| CNC(=O)/C(=N/OC)c1cccc(C)c1CO/N=C(\C)c1cccc(Br)c1F [compound 141] | 2% | 0% | 2% | 0% | – | – | – | – |
| CNC(=O)/C(=N/OC)c1cccc(C)c1CO/N=C(\C)c1cccc(C2CC2)c1 [compound 299] | 53% | 22% | 53% | 13% | – | – | – | – |
| CO/N=C(/C(=O)OC)c1cccc(C)c1CO/N=C(\C)c1ccc(Cc2ccccc2)cc1OC(F)(F)F [compound 416] | 67% | 25% | 57% | 27% | – | – | – | – |
| CNC(=O)/C(=N/OC)c1cccc(C)c1CO/N=C(\C)c1c(F)cc(F)cc1C(F)(F)F [compound 357] | 18% | 0% | 13% | 1% | – | – | – | – |
| CNC(=O)/C(=N/OC)c1cccc(C)c1CO/N=C(\C)c1ccc(-c2ccccc2)cc1OC(F)(F)F [compound 435] | 87% | 60% | 93% | 57% | – | – | – | – |
| CNC(=O)/C(=N/OC)c1cccc(C)c1CO/N=C(\C)c1cccc(/C(=N/OC)C(F)(F)F)c1 [compound 71] | 6% | 0% | 2% | 0% | – | – | – | – |
| CNC(=O)/C(=N/OC)c1ccccc1CO/N=C(\C)c1cccc(C(F)F)c1 [reference compound] | – | – | – | – | – | – | 35% | 16% |
| CNC(=O)/C(=N/OC)c1cccc(C)c1CO/N=C(\C)c1ccc(/C(C)=N/OC)cc1 [compound 182] | 13% | 0% | 6% | 0% | – | – | – | – |
| CNC(=O)/C(=N/OC)c1cccc(C)c1CO/N=C(\C)c1c(Cl)cc(Cl)cc1OC(F)(F)F [compound 428] | 83% | 20% | 70% | 11% | – | – | – | – |
| CNC(=O)/C(=N/OC)c1cccc(C)c1CO/N=C(\C)c1ccccc1-c1ccccc1 [compound 124] | 92% | 75% | 98% | 87% | – | – | – | – |
| CCc1cc(/C(C)=N/OCc2c(C)cccc2/C(=N\OC)C(=O)NC)cc(C(F)(F)F)c1 [compound 151] | 53% | 6% | 37% | 3% | – | – | – | – |
| CNC(=O)/C(=N/OC)c1cccc(C)c1CO/N=C(\C)c1cc(Cl)ccc1C(F)(F)F [compound 245] | 13% | 2% | 28% | 8% | – | – | – | – |
| CO/N=C(/C(=O)OC)c1cccc(C)c1CO/N=C(\C)c1cc(-c2ccccc2)cc(C(F)(F)F)c1 [compound 144] | 92% | 90% | 87% | 80% | – | – | – | – |
